Test results published in patent US9636021B2, “Flavonoid compounds of low toxicity for biological imaging applications” (The University of Akron, priority 2014, dated 2017).

Assays:
[1] = absorbance and fluorescence spectra in DMSO; format: physicochemical
Text: The absorbance and fluorescence spectra of compounds 1-6 in dimethyl sulfoxide (DMSO) were investigated and the results are in Table 1.

[2] = molecular target: bovine serum albumin (BSA) (Bos taurus, UniProt P02769); assay: fluorescence turn-on with BSA in PBS buffer; format: binding; conditions: for detection limit (10% increase in fluorescence emission) / visual recognizable detection limit (S/N above 3:1): BSA; for F(+)/F(−) fluorescence intensity with BSA / without BSA: BSA 1.0 mg/ml; for F(+)/F(−) fluorescence intensity with BSA / without BSA / λabs(+) / λem(+) / λabs(−) / λem(−): 10 μM dye; for λabs(+) / λem(+): with BSA 1.0 mg/ml; for λabs(−) / λem(−): without BSA
Chain of bovine serum albumin (BSA) (P02769 25-607): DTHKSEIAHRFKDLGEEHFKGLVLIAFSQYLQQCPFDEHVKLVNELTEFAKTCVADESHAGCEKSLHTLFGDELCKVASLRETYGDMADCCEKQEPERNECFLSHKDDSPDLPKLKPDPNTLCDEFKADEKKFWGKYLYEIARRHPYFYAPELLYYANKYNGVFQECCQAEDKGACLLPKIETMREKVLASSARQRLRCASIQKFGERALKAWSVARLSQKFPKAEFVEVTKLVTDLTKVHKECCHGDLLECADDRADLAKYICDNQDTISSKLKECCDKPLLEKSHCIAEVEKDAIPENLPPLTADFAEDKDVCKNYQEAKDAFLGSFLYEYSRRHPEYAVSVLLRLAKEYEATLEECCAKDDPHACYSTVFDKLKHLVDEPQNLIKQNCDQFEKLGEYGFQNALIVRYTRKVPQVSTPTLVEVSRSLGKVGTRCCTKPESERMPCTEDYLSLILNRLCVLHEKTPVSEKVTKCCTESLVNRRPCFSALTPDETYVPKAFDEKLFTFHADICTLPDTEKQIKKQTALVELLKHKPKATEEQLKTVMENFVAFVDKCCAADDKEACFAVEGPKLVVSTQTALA
Procedure: In the aqueous buffer (0.5% DMSO, 10 mM of PBS, pH=7.4), the BSA binding-induced fluorescence turn-on was so large that it could be easily seen by naked eye. […] The intramolecular charge transfer along the D-A conjugated backbone plays a very important role in the environment-sensitivity of the flavone. All the evidence consistently pointed to the flavone dye entering the hydrophobic site of BSA.
Generally, the detection limit can be defined as the analyte concentration at which a 10% increase in fluorescence emission can be measured.
Therefore, the detection limits of compounds 1-6 were 2.6, 0.14, 0.59, 0.09, 14, and 3.4 μg/mL, respectively. For Off/On type fluorescent sensor, the Signal-to-Noise (S/N) ratio above 3:1 is considered reliable for visual evaluation. The visual recognizable detection limits of compounds 1-6 were calculated as 78, 4.2, 17.7, 2.7, 420, and 102 μg/mL, respectively. The reference range for serum albumin concentration in human blood plasma is approximately 35-50 mg/mL. Even in fish, the concentration of serum albumins can reach 0.5-5 mg/mL. The detection limits of the compounds were much lower than serum albumin concentration, indicating the capability for actual blood sample testing.

[3] = fluorescence quenching by water; format: physicochemical
Text: Upon excitation via photon irradiation, the dipole moment increased dramatically because of the charge transfer from D-A structure in compound 1. An increase in the solvent polarity could relax the excited molecules more efficiently, thus decreasing the energy of the excited state of fluorophore and resulting in a red-shifted emission. […] The fluorescence of compound 1 was nearly 100% quenched by water due to intermolecular electron or proton transfer. Non-fluorescence in water raises the possibility of eliminating the washing process in the protein detection procedure, since the free dye molecules gives negligible background signal in water.

[4] = system: serum albumin in monkey serum; assay: fluorescence response to monkey serum; format: binding; conditions: 10 μM in 1 mL PBS
Procedure: FIG. 18 provides a chart of fluorescence spectra changes and of compound 4 (10 μM, in 1 mL of PBS buffer solution) upon addition of different volume of monkey serum;
FIG. 19 provides a chart of fluorescent intensities (λ=505 nm) of compound 4 (10 μM, in 1 mL of PBS buffer solution) upon addition of different volume of monkey serum;
Serum albumin is known as the most abundant protein in blood serum. The probe's fluorescence response to serum albumin in real blood samples would be considered as an ideal sensing tool. In this example, 10 μM of compound 4 was dissolved in 1 mL of PBS buffer as a test solution. […] The detection limit (S/N>3) for monkey serum was calculated as 0.03 μL.

[5] = molecular target: BSA, human serum albumin (HSA) (Bos taurus, UniProt P02769); assay: wash-free staining of proteins in SDS-PAGE gel; format: binding; conditions: 2 hours staining, 10 mM dye, 0.3% SDS, no washing
Chain of BSA, human serum albumin (HSA) (Bos taurus, UniProt P02769) (P02769 25-607): as above
Procedure: (§1) FIG. 20 provides fluorescence images of several proteins in electrophoresis gel stained by compound 4 before and after washing 1. BSA at 0.1 μg; 2. BSA at 1 μg; 3. BSA at 10 μg; 4. BSA at 100 μg; 5. HSA at 10 μg; 6. Fibrinogen at 10 μg; 7. Lysozyme at 10 μg; 8. Trypsin at 10 μg;
(§2) Various proteins were run on the 1-D SDS-PAGE minigels with running buffer (25 mM Tris, 192 mM glycine, 0.1% SDS pH 8.3) under 100 volts for 1.5 hrs. The minigels were then placed in the dye solution (10 mM of compound 4, 0.3% SDS, and AcOH/DMSO/H2O=5:10:85). […] Therefore, the discovered protein-staining reagent had the following advantages: (1) low interference of SDS to fluorescence, thereby eliminating the pretreatment; (2) very weak fluorescent in water and gels to eliminate the need for the washing process; (3) strong interaction with the proteins (serum albumin) to reduce the staining time; (4) a high signal-to-noise (S/N) ratio for the high contrast ratio of images.

[6] = system: BSA, human serum albumin (HSA); assay: wash-free staining of proteins in SDS-PAGE gel; format: binding; conditions: BSA, HSA vs fibrinogen, lysozyme, trypsin, 10 μg
Procedure: as §1, §2

SMILES: CN(C)c1ccc(-c2oc3ccccc3c(=O)c2O)cc1 [compound 1, 2-(4-(dimethylamino)phenyl)-3-hydroxy-4H-chromen-4-one]
- Φ [1]: 10.0%
- λabs [1]: 403 nm
- detection limit (10% increase in fluorescence emission) [2]: 2.6 µg/mL
- visual recognizable detection limit (S/N above 3:1) [2]: 78 µg/mL
- F(+)/F(−) fluorescence intensity with BSA / without BSA ([2]; 10 mM PBS, 0.5% DMSO, pH 7.4): 38
- λabs(+) ([2]; 10 mM PBS, 0.5% DMSO, pH 7.4): 416 nm
- λem(+) ([2]; 10 mM PBS, 0.5% DMSO, pH 7.4): 556 nm
- λabs(−) ([2]; 10 mM PBS, 0.5% DMSO, pH 7.4): 403 nm
- λem(−) ([2]; 10 mM PBS, 0.5% DMSO, pH 7.4): 560 nm
- fluorescence quenched by water [3]: ~100%

SMILES: COc1c(-c2ccc(N(C)C)cc2)oc2ccc(C)cc2c1=O [compound 4, 2-(4-(dimethylamino)phenyl)-3-methoxy-6-methyl-4H-chromen-4-one]
- Φ [1]: 37.6%
- λabs [1]: 390 nm
- λem [1]: 504 nm
- detection limit (10% increase in fluorescence emission) [2]: 0.09 µg/mL
- visual recognizable detection limit (S/N above 3:1) [2]: 2.7 µg/mL
- F(+)/F(−) fluorescence intensity with BSA / without BSA ([2]; 10 mM PBS, 0.5% DMSO, pH 7.4): 1100
- fluorescence in the absence of BSA ([2]; aqueous buffer, 0.5% DMSO, 10 mM PBS, pH 7.4): almost no fluorescence
- λabs(+) ([2]; 10 mM PBS, 0.5% DMSO, pH 7.4): 398 nm
- λem(+) ([2]; 10 mM PBS, 0.5% DMSO, pH 7.4): 484 nm
- λabs(−) ([2]; 10 mM PBS, 0.5% DMSO, pH 7.4): 398 nm
- λem(−) ([2]; 10 mM PBS, 0.5% DMSO, pH 7.4): 490 nm
- detection limit (S/N>3) for monkey serum [4]: 0.03 µL
- fluorescence intensity enhancement at 505 nm ([4]; 25 μL of serum sample): 135 fold
- amount of BSA clearly observed in gel under a UV lamp [5]: ~1 µg
- selectivity of protein staining in gel [6]: serum albumin proteins were selectively stained
